Test results published in ChEMBL document CHEMBL3112488, “Discovery of C-(1-aryl-cyclohexyl)-methylamines as selective, orally available inhibitors of dipeptidyl peptidase IV” (Bioorg Med Chem Lett, 2014).
Blank lines part the entries; values can stand above or below the compound they belong to.

Experiments:
[1] = target: Dipeptidyl peptidase 9 (Homo sapiens, UniProt Q86TI2); assay: Inhibition of human recombinant DPP9
[2] = Oral bioavailability in rat at 3 mg/kg administered in 10% PEG300/90% PBS; format: ADME, organism-based; settings: in vivo
[3] = Clearance in rat at 1 mg/kg, iv administered in 10% PEG300/90% PBS; format: ADME, organism-based; parameters: dose 1 mg/kg, route intravenous; settings: in vivo
[4] = Half life in rat at 1 mg/kg, iv administered in 10% PEG300/90% PBS; format: ADME, organism-based; parameters: dose 1 mg/kg, route intravenous; settings: in vivo
[5] = Volume of distribution at steady state in rat at 1 mg/kg, iv administered in 10% PEG300/90% PBS; format: ADME, organism-based; parameters: dose 1 mg/kg, route intravenous; settings: in vivo, read-out: Vdss
[6] = AUC (0 to 8 hrs) in rat at 3 mg/kg, po administered in 10% PEG300/90% PBS; format: ADME, organism-based; parameters: time < 8 hr, dose 3 mg/kg, route oral; settings: plasma
[7] = Cmax in rat at 3 mg/kg, po administered in 10% PEG300/90% PBS; format: ADME, organism-based; parameters: dose 3 mg/kg, route oral; settings: in vivo
[8] = Tmax in rat at 3 mg/kg, po administered in 10% PEG300/90% PBS; format: ADME, organism-based; parameters: dose 3 mg/kg, route oral; settings: in vivo
[9] = target: Voltage-gated inwardly rectifying potassium channel KCNH2 (Homo sapiens, UniProt Q12809); assay: Inhibition of human ERG by dofetilide binding assay
[10] = target: Cytochrome P450 2D6 (Homo sapiens, UniProt P10635); assay: Inhibition of CYP2D6 (unknown origin); format: ADME
[11] = Intrinsic clearance in rat liver microsomes; format: ADME
[12] = Permeability from basolateral to apical side in human Caco2 cells; format: ADME, cell-based; settings: Caco-2, read-out: permeability
[13] = Permeability from apical to basolateral side in human Caco2 cells; format: ADME, cell-based; settings: Caco-2, read-out: permeability
[14] = target: Dipeptidyl peptidase 8 (Homo sapiens, UniProt Q6V1X1); assay: Inhibition of human recombinant DPP8
[15] = species: Rattus norvegicus; assay: animal or person; settings: Sprague-Dawley, Plasma, po, 0.5 h, read-out: INH
[16] = species: Rattus norvegicus; assay: animal or person; settings: Sprague-Dawley, Plasma, po, 8 h, read-out: INH
[17] = Oral bioavailability in rat at 3 mg/kg administered in PBS buffer at pH 6.8; format: ADME, organism-based; settings: in vivo
[18] = Clearance in rat at 1 mg/kg, iv administered in PBS buffer at pH 6.8; format: ADME, organism-based; parameters: dose 1 mg/kg, route intravenous; settings: in vivo
[19] = Half life in rat at 1 mg/kg, iv administered in PBS buffer at pH 6.8; format: ADME, organism-based; parameters: dose 1 mg/kg, route intravenous; settings: in vivo
[20] = Volume of distribution at steady state in rat at 1 mg/kg, iv administered in PBS buffer at pH 6.8; format: ADME, organism-based; parameters: dose 1 mg/kg, route intravenous; settings: in vivo, read-out: Vdss
[21] = AUC (0 to 8 hrs) in rat at 3 mg/kg, po administered in PBS buffer at pH 6.8; format: ADME, organism-based; parameters: time < 8 hr, dose 3 mg/kg, route oral; settings: plasma
[22] = Cmax in rat at 3 mg/kg, po administered in PBS buffer at pH 6.8; format: ADME, organism-based; parameters: dose 3 mg/kg, route oral; settings: in vivo
[23] = Tmax in rat at 3 mg/kg, po administered in PBS buffer at pH 6.8; format: ADME, organism-based; parameters: dose 3 mg/kg, route oral; settings: in vivo
[24] = Oral bioavailability in rat at 3 mg/kg administered in sodium acetate buffer at pH 4.63; format: ADME, organism-based; settings: in vivo
[25] = Clearance in rat at 1 mg/kg, iv administered in sodium acetate buffer at pH 4.63; format: ADME, organism-based; parameters: dose 1 mg/kg, route intravenous; settings: in vivo
[26] = Half life in rat at 1 mg/kg, iv administered in sodium acetate buffer at pH 4.63; format: ADME, organism-based; parameters: dose 1 mg/kg, route intravenous; settings: in vivo
[27] = Volume of distribution at steady state in rat at 1 mg/kg, iv administered in sodium acetate buffer at pH 4.63; format: ADME, organism-based; parameters: dose 1 mg/kg, route intravenous; settings: in vivo, read-out: Vdss
[28] = AUC (0 to 8 hrs) in rat at 3 mg/kg, po administered in sodium acetate buffer at pH 4.63; format: ADME, organism-based; parameters: time < 8 hr, dose 3 mg/kg, route oral; settings: plasma
[29] = Cmax in rat at 3 mg/kg, po administered in sodium acetate buffer at pH 4.63; format: ADME, organism-based; parameters: dose 3 mg/kg, route oral; settings: in vivo
[30] = Tmax in rat at 3 mg/kg, po administered in sodium acetate buffer at pH 4.63; format: ADME, organism-based; parameters: dose 3 mg/kg, route oral; settings: in vivo
[31] = species: Rattus norvegicus; assay: animal or person; settings: Sprague-Dawley, Plasma, po, read-out: INH

Sequence of Cytochrome P450 2D6 (P10635 whole entry): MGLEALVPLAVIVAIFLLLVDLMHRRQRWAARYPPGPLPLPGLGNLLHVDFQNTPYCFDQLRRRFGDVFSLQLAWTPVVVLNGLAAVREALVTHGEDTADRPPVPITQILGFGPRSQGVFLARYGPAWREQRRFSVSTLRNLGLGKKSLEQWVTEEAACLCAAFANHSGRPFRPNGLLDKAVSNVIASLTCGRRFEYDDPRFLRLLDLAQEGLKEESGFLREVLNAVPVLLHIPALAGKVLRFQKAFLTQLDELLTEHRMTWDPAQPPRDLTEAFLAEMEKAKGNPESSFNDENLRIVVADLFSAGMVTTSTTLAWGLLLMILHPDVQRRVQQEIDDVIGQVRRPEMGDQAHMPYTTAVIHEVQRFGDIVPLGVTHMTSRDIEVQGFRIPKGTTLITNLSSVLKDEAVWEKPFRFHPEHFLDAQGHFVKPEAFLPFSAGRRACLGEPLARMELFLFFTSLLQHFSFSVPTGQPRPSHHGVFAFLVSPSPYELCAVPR
Sequence of Voltage-gated inwardly rectifying potassium channel KCNH2 (Q12809 whole entry): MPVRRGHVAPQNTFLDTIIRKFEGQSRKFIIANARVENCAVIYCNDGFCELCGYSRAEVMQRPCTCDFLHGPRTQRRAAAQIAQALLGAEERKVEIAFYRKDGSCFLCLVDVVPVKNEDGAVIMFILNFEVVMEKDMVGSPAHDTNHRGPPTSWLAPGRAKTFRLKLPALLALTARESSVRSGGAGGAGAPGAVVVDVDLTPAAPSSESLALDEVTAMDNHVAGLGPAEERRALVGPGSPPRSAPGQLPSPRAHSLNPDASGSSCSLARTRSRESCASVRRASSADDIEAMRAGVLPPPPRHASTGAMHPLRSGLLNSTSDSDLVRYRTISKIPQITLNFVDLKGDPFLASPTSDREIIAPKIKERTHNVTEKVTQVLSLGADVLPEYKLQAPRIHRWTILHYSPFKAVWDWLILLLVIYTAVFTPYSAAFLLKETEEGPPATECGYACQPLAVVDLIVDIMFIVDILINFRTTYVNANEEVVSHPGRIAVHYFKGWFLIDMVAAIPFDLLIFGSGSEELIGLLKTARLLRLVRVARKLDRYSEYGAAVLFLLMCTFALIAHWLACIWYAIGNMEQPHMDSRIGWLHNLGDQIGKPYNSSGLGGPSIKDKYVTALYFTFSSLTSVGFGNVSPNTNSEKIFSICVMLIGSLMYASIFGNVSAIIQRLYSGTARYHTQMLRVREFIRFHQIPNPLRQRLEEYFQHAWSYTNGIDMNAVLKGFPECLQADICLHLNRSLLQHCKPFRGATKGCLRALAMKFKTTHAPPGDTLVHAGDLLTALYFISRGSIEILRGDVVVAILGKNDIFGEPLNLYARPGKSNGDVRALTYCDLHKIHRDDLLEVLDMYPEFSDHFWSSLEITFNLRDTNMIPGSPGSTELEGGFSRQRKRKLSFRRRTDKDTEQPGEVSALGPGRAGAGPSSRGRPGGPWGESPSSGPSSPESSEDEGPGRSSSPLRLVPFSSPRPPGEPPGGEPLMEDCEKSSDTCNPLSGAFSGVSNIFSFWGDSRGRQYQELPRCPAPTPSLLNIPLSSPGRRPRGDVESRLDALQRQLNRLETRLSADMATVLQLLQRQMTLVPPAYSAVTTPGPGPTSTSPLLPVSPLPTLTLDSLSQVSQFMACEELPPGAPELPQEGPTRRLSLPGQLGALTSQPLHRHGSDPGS
Sequence of Dipeptidyl peptidase 9 (Q86TI2 whole entry): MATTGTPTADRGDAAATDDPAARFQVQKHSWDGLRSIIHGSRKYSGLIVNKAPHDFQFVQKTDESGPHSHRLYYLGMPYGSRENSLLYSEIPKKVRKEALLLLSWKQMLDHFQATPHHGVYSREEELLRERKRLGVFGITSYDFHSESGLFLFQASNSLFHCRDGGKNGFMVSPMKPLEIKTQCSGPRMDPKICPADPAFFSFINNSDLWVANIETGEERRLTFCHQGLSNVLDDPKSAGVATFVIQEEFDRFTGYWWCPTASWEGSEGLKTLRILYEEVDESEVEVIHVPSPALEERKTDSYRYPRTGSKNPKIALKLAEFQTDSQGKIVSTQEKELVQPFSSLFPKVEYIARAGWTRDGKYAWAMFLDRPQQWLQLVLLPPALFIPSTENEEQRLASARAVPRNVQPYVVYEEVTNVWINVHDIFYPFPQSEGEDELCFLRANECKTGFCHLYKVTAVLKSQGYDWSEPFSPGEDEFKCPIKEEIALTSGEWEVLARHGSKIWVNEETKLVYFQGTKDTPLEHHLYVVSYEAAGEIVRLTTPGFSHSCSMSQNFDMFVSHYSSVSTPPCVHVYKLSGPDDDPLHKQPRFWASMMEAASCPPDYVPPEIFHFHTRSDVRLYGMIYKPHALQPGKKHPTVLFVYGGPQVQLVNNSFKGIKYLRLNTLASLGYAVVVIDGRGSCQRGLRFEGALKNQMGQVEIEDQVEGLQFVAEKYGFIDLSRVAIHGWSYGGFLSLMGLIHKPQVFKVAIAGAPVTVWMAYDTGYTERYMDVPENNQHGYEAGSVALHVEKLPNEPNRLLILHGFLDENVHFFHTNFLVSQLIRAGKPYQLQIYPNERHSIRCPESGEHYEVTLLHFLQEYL
Sequence of Dipeptidyl peptidase 8 (Q6V1X1 whole entry): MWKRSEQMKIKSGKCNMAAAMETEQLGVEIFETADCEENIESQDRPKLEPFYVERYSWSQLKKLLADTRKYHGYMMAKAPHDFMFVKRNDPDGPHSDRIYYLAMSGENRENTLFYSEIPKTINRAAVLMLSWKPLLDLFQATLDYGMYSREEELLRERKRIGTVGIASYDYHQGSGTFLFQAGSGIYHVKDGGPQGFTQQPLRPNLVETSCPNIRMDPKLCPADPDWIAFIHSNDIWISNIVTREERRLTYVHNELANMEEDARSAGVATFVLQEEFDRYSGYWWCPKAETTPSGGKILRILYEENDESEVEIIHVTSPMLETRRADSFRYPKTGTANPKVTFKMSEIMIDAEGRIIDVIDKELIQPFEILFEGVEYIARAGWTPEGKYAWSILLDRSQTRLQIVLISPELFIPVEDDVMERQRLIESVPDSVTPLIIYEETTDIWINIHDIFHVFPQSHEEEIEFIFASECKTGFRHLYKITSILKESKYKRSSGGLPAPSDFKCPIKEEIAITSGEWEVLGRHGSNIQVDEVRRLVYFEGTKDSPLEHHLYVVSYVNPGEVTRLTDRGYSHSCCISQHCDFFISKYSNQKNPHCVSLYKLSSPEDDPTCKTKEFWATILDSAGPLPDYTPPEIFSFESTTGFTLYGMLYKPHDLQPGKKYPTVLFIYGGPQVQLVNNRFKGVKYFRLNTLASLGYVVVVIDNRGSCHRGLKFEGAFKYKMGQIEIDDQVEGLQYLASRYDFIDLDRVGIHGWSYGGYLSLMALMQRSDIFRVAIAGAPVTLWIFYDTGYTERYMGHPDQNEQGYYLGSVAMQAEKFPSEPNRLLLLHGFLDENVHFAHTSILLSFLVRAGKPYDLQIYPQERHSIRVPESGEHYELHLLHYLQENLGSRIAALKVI

SMILES: NC[C@]1(c2cccc(Cl)c2)CC[C@H](n2nc(-c3cccnc3)ccc2=O)CC1
- bioavailability [2]: 92%
- clearance [3]: 29 mL/min/kg
- half-life [4]: 2.2 h
- Vd [5]: 3.9 L/kg
- AUC(0-t) at 8 h [6]: 4.01 µM·h
- Cmax [7]: 921 nM
- Tmax [8]: 1.8 h
- IC50 [9]: 4.4 µM
- IC50 [10]: > 10 µM
- CLint [11]: 51.1 µL/min/mg
- Papp B→A [12]: 13 ×10⁻⁶ cm/s
- Papp A→B [13]: 8.6 ×10⁻⁶ cm/s
- IC50 [1]: > 30 µM
- IC50 [14]: > 30 µM
- inhibition in vivo at 3 mg/kg [15]: 91%
- inhibition in vivo at 3 mg/kg [16]: 80%

SMILES: NC[C@]1(c2cccc(Cl)c2)CC[C@H](N2CCc3c(nc(C(F)(F)F)nc3C3CC3)C2=O)CC1
- bioavailability [24]: 78%
- clearance [25]: 9.5 mL/min/kg
- half-life [26]: 2.3 h
- Vd [27]: 2.1 L/kg
- AUC(0-t) at 8 h [28]: 7.91 µM·h
- Cmax [29]: 1900 nM
- Tmax [30]: 3.3 h
- IC50 [9]: 0.26 µM
- IC50 [10]: 10 µM
- CLint [11]: 43.4 µL/min/mg
- Papp B→A [12]: 11 ×10⁻⁶ cm/s
- Papp A→B [13]: 4.4 ×10⁻⁶ cm/s

SMILES: NC[C@]1(c2cccc(Cl)c2)CC[C@H](N2CCn3c(nnc3C(F)(F)F)C2)CC1
- IC50 [1]: 30 µM

SMILES: NC[C@]1(c2cccc(Cl)c2)CC[C@H](N2CCc3c(nc(C(F)(F)F)nc3C3CC3)C2)CC1
- IC50 [1]: > 30 µM
- IC50 [14]: > 30 µM

SMILES: N[C@@H](CC(=O)N1CCn2c(nnc2C(F)(F)F)C1)Cc1cc(F)c(F)cc1F [SITAGLIPTIN]
- inhibition in vivo at 3 mg/kg [16]: 30%
- inhibition in vivo at 3 mg/kg [31]: 82%

Now from value to compound, other results behind:

- IC50 [1]: > 30 µM
SMILES: Cc1ccc(=O)n([C@H]2CC[C@](CN)(c3cccc(Cl)c3)CC2)n1

- bioavailability [17]: 17%
- clearance [18]: 69 mL/min/kg
- half-life [19]: 2.7 h
- Vd [20]: 11.7 L/kg
- AUC(0-t) at 8 h [21]: 0.214 µM·h
- Cmax [22]: 57.8 nM
- Tmax [23]: 3.3 h
- IC50 [10]: 4.5 µM
- CLint [11]: 21.9 µL/min/mg
- Papp B→A [12]: 4.8 ×10⁻⁶ cm/s
- Papp A→B [13]: 1.6 ×10⁻⁶ cm/s
SMILES: NC[C@]1(c2cccc(Cl)c2)CC[C@H](N2CCn3c(nnc3C(F)(F)F)C2=O)CC1
- IC50 [9]: > 30 µM
